Data: patent US8653125B2, “Cyclohexane derivative having NPY Y5 receptor antagonism” (Shionogi Co., Ltd., priority 2009, dated 2014)

Biological target: mouse NPY Y5 receptor (Mus musculus (Mouse), UniProt O70342)
Experiment: Affinity for NPY Y5 receptor (Test Example 1-1), 125I peptide YY binding
Settings: inhibition of 125I peptide YY binding to membranes of CHO cells expressing mouse NPY Y5 receptor
Text: cDNA sequence encoding mouse NPY Y5 receptor (Biochem. Biophys. Acta 1328: 83-89, 1997) was cloned in the expression vector (pME18S, Takebe et al. Mol. Cell. Biol. 8, 466-472). The obtained expression vector was transfected into CHO cells as a host according to the instruction manual using Lipofectamine reagent (Trademark, Gibco BRL Co., Ltd.). The cells that stably express NPY Y5 receptor were obtained.
The membrane samples prepared from the CHO cells expressing NPY Y5 receptor, the compound of the invention and 30,000 cpm ^125I peptide YY (60 pM of final concentration: Amersham) were incubated in the assay buffer (20 mM HEPES-Hanks buffer containing 0.1% bovine serum albumin, pH 7.4) at 25° C. for 2 hours. The membrane samples were then filtered from the mixture through a glassfilter (GF/C) presoaked with 1% polyethyleneimine. After washing with 50 mM Tris-HCl buffer (pH 7.4), radioactivity retained on the filters was determined using gamma counter. Non-specific binding was determined in the presence of 200 nM of peptide YY and the 50% inhibitory concentration (IC50 value) of the test compound for specific peptide YY binding was calculated (Inui, A. et al. Endocrinology 131, 2090-2096 (1992)).

mouse NPY Y5 receptor, sequence (O70342 whole entry): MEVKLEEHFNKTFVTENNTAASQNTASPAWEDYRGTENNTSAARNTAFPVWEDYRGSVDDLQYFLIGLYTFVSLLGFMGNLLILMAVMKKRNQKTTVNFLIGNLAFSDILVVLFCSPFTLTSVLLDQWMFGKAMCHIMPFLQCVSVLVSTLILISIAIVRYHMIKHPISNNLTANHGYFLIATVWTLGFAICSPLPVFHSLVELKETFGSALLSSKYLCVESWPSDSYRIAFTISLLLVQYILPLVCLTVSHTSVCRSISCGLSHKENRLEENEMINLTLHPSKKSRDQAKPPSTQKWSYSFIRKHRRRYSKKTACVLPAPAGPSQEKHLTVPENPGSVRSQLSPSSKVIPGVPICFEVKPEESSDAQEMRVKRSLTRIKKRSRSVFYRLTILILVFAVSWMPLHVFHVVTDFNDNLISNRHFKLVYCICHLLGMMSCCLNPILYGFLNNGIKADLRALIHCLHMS

Row | SMILES | IC50
1 | O=C(N[C@H]1CC[C@@H](C(=O)Nc2ccn(-c3ccccc3F)n2)CC1)c1cccc(F)n1 [Ia-2] | 1.6 nM
2 | O=C(N[C@H]1CC[C@@H](C(=O)Nc2ccn(-c3ccccc3F)n2)CC1)c1cccc(Cl)n1 [Ia-4] | 3.8 nM
3 | O=C(N[C@H]1CC[C@@H](C(=O)Nc2cccc(-c3ccccc3F)c2)CC1)c1ccccc1 [Ia-14] | 4.1 nM
4 | CC(C)n1c(=O)oc2cc(NC(=O)[C@H]3CC[C@@H](NC(=O)c4ccccc4)CC3)ccc21 [Ia-15] | 4.5 nM
5 | N#Cc1ccccc1C(=O)N[C@H]1CC[C@@H](C(=O)Nc2ccn(-c3ccccc3F)n2)CC1 [Ia-24] | 2.9 nM
6 | O=C(N[C@H]1CC[C@@H](C(=O)Nc2cccc(-c3ccccc3F)c2)CC1)c1ccon1 [Ia-28] | 4.1 nM
7 | O=C(N[C@H]1CC[C@@H](C(=O)Nc2ccc(-c3ccccc3F)cc2)CC1)c1ccon1 [Ia-30] | 0.71 nM
8 | CC(C)n1c(=O)oc2cc(NC(=O)[C@H]3CC[C@@H](NC(=O)c4ccon4)CC3)ccc21 [Ia-32] | 3.3 nM
9 | O=C(N[C@H]1CC[C@@H](C(=O)Nc2ccc(-c3ccccc3)cc2)CC1)c1ccon1 [Ia-35] | 0.65 nM
10 | O=C(N[C@H]1CC[C@@H](c2nc(-c3ccc(Cl)c(Cl)c3)c[nH]2)CC1)c1ccon1 [Ia-40] | 0.26 nM
11 | O=C(N[C@H]1CC[C@@H](c2nc(-c3cccc(Cl)c3)c[nH]2)CC1)c1ccon1 [Ia-42] | 3 nM
12 | O=C(N[C@H]1CC[C@@H](c2nc(-c3cccc(C(F)(F)F)c3)c[nH]2)CC1)c1ccon1 [Ia-43] | 1.8 nM
13 | O=C(Nc1ccn(-c2ccccc2F)n1)[C@H]1CC[C@@H](Nc2cccc(F)n2)CC1 [Ib-1] | 2.9 nM
14 | CC(C)n1c(=O)oc2cc(NC(=O)[C@H]3CC[C@@H](Nc4cccc(F)n4)CC3)ccc21 [Ib-4] | 1.5 nM
15 | C[C@@H]1CN(c2ccc(NC(=O)[C@H]3CC[C@@H](Oc4cc(Cl)ccn4)CC3)cc2)C[C@H](C)O1 [Ic-5] | 1.5 nM
16 | N#Cc1ccccc1O[C@H]1CC[C@@H](C(=O)Nc2ccc(OC(F)F)cc2)CC1 [Ic-8] | 2.3 nM
17 | C[C@@H]1CN(c2ccc(NC(=O)[C@H]3CC[C@@H](Oc4cc(C(F)(F)F)ccc4C#N)CC3)cc2)C[C@H](C)O1 [Ic-11] | 1.8 nM
18 | C[C@@H]1CN(c2ccc(NC(=O)[C@H]3CC[C@@H](Oc4cc(Cl)ccc4C#N)CC3)cc2)C[C@H](C)O1 [Ic-12] | 1.1 nM
19 | CC(C)n1c(=O)oc2cc(NC(=O)[C@H]3CC[C@@H](Oc4cc(Cl)ccc4C#N)CC3)ccc21 [Ic-13] | 0.56 nM
20 | CC(C)n1c(=O)oc2cc(NC(=O)[C@H]3CC[C@@H](Oc4cc(C(F)(F)F)ccc4C#N)CC3)ccc21 [Ic-14] | 0.68 nM
21 | CC(C)n1c(=O)oc2cc(NC(=O)[C@H]3CC[C@@H](Oc4cc(C(F)(F)F)ccn4)CC3)ccc21 [Ic-16] | 0.41 nM
22 | O=C(Nc1ccn(-c2ccccc2F)n1)[C@H]1CC[C@@H](Oc2cc(Cl)ccn2)CC1 [Ic-17] | 0.69 nM
23 | O=C(Nc1ccn(-c2ccccc2F)n1)[C@H]1CC[C@@H](N2c3ccccc3OS2(=O)=O)CC1 [Id-8] | 0.58 nM
